Source: PubChem BioAssay (NCI)
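Following 48 hours of exposure in 96-well plates, responses at five concentrations were used to interpolate endpoints linearly. GI50 = concentration required for 50% inhibition of growth. TGI: concentration producing complete growth inhibition.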

What was measured:
Assay in all cases: NCI tumour cell line growth inhibition, 48 h
786-0 renal = tested on: 786-0 renal
A498 renal = tested on: A498 renal
A549 NSCLC = tested on: A549 NSCLC
ACHN renal = tested on: ACHN renal
BT-549 breast = tested on: BT-549 breast
CAKI-1 renal = tested on: CAKI-1 renal
CCRF-CEM leukemia = tested on: CCRF-CEM leukemia
COLO 205 colon = tested on: COLO 205 colon
DU-145 prostate = tested on: DU-145 prostate
EKVX NSCLC = tested on: EKVX NSCLC
HCC-2998 colon = tested on: HCC-2998 colon
HCT-116 colon = tested on: HCT-116 colon
HCT-15 colon = tested on: HCT-15 colon
HL-60(TB) leukemia = tested on: HL-60(TB) leukemia
HOP-62 NSCLC = tested on: HOP-62 NSCLC
HOP-92 NSCLC = tested on: HOP-92 NSCLC
HS 578T breast = tested on: HS 578T breast
HT29 colon = tested on: HT29 colon
IGROV1 ovarian = tested on: IGROV1 ovarian
K-562 leukemia = tested on: K-562 leukemia
KM12 colon = tested on: KM12 colon
LOX IMVI melanoma = tested on: LOX IMVI melanoma
M14 melanoma = tested on: M14 melanoma
MALME-3M melanoma = tested on: MALME-3M melanoma
MCF7 breast = tested on: MCF7 breast
MDA-MB-231 breast = tested on: MDA-MB-231 breast
MDA-MB-435 = tested on: MDA-MB-435
MDA-MB-468 breast = tested on: MDA-MB-468 breast
MOLT-4 leukemia = tested on: MOLT-4 leukemia
NCI-H226 lung = tested on: NCI-H226 lung
NCI-H23 lung = tested on: NCI-H23 lung
NCI-H460 lung = tested on: NCI-H460 lung
NCI-H522 lung = tested on: NCI-H522 lung
NCI/ADR-RES ovarian = tested on: NCI/ADR-RES ovarian
OVCAR-3 ovarian = tested on: OVCAR-3 ovarian
OVCAR-4 ovarian = tested on: OVCAR-4 ovarian
OVCAR-5 ovarian = tested on: OVCAR-5 ovarian
OVCAR-8 ovarian = tested on: OVCAR-8 ovarian
PC-3 prostate = tested on: PC-3 prostate
RPMI-8226 leukemia = tested on: RPMI-8226 leukemia
RXF 393 renal = tested on: RXF 393 renal
SF-268 CNS = tested on: SF-268 CNS
SF-295 CNS = tested on: SF-295 CNS
SF-539 CNS = tested on: SF-539 CNS
SK-MEL-2 melanoma = tested on: SK-MEL-2 melanoma
SK-MEL-28 melanoma = tested on: SK-MEL-28 melanoma
SK-MEL-5 melanoma = tested on: SK-MEL-5 melanoma
SK-OV-3 ovarian = tested on: SK-OV-3 ovarian
SN12C renal = tested on: SN12C renal
SNB-19 CNS = tested on: SNB-19 CNS
SNB-75 CNS = tested on: SNB-75 CNS
SR leukemia = tested on: SR leukemia
SW-620 colon = tested on: SW-620 colon
TK-10 renal = tested on: TK-10 renal
U251 CNS = tested on: U251 CNS
UACC-257 melanoma = tested on: UACC-257 melanoma
UACC-62 melanoma = tested on: UACC-62 melanoma
UO-31 renal = tested on: UO-31 renal

OCCNc1oc(-c2ccccc2)nc1[P+](c1ccccc1)(c1ccccc1)c1ccccc1
GI50 (786-0 renal): 13.2 µM
TGI (786-0 renal): 29.8 µM
GI50 (A498 renal): 15.4 µM
TGI (A498 renal): 48.2 µM
GI50 (A549 NSCLC): 18.5 µM
TGI (A549 NSCLC): > 100 µM
GI50 (ACHN renal): 18.8 µM
TGI (ACHN renal): 85.1 µM
GI50 (BT-549 breast): 2.51 µM
TGI (BT-549 breast): 7.88 µM
GI50 (CAKI-1 renal): 11.5 µM
TGI (CAKI-1 renal): 43.1 µM
GI50 (CCRF-CEM leukemia): 3.07 µM
TGI (CCRF-CEM leukemia): 19.9 µM
GI50 (COLO 205 colon): 2.14 µM
TGI (COLO 205 colon): 7.86 µM
GI50 (DU-145 prostate): 6.1 µM
TGI (DU-145 prostate): 21.3 µM
GI50 (EKVX NSCLC): 5.1 µM
TGI (EKVX NSCLC): 28.3 µM
GI50 (HCC-2998 colon): 3.3 µM
TGI (HCC-2998 colon): 11.7 µM
GI50 (HCT-116 colon): 4.8 µM
TGI (HCT-116 colon): 35.1 µM
GI50 (HCT-15 colon): 29.8 µM
TGI (HCT-15 colon): > 100 µM
GI50 (HL-60(TB) leukemia): 1.57 µM
TGI (HL-60(TB) leukemia): 5.33 µM
GI50 (HOP-62 NSCLC): 10 µM
TGI (HOP-62 NSCLC): 34.4 µM
GI50 (HOP-92 NSCLC): 1.35 µM
TGI (HOP-92 NSCLC): 6.73 µM
GI50 (HS 578T breast): 3.21 µM
TGI (HS 578T breast): 13.3 µM
GI50 (HT29 colon): 3.04 µM
TGI (HT29 colon): 17.5 µM
GI50 (IGROV1 ovarian): 2.57 µM
TGI (IGROV1 ovarian): 8.53 µM
GI50 (K-562 leukemia): 2.5 µM
TGI (K-562 leukemia): 20.7 µM
GI50 (KM12 colon): 3.21 µM
TGI (KM12 colon): 11.2 µM
GI50 (LOX IMVI melanoma): 3.93 µM
TGI (LOX IMVI melanoma): 14.6 µM
GI50 (M14 melanoma): 4.4 µM
TGI (M14 melanoma): 20.2 µM
GI50 (MALME-3M melanoma): 1.95 µM
TGI (MALME-3M melanoma): 6.52 µM
GI50 (MCF7 breast): 2.69 µM
TGI (MCF7 breast): 12.5 µM
GI50 (MDA-MB-231 breast): 1.87 µM
TGI (MDA-MB-231 breast): 5.2 µM
GI50 (MDA-MB-435): 2.99 µM
TGI (MDA-MB-435): 11.3 µM
GI50 (MDA-MB-468 breast): 1.08 µM
TGI (MDA-MB-468 breast): 4.35 µM
GI50 (MOLT-4 leukemia): 4.43 µM
TGI (MOLT-4 leukemia): 35.1 µM
GI50 (NCI-H226 lung): 4.05 µM
TGI (NCI-H226 lung): 24.5 µM
GI50 (NCI-H23 lung): 4.3 µM
TGI (NCI-H23 lung): 23.8 µM
GI50 (NCI-H460 lung): 3.29 µM
TGI (NCI-H460 lung): 13.6 µM
GI50 (NCI-H522 lung): 2.15 µM
TGI (NCI-H522 lung): 9.32 µM
GI50 (NCI/ADR-RES ovarian): > 100 µM
TGI (NCI/ADR-RES ovarian): > 100 µM
GI50 (OVCAR-3 ovarian): 2.35 µM
TGI (OVCAR-3 ovarian): 11 µM
GI50 (OVCAR-4 ovarian): 3.68 µM
TGI (OVCAR-4 ovarian): 59.4 µM
GI50 (OVCAR-5 ovarian): 5.06 µM
TGI (OVCAR-5 ovarian): 34.2 µM
GI50 (OVCAR-8 ovarian): 3.79 µM
TGI (OVCAR-8 ovarian): 15.2 µM
GI50 (PC-3 prostate): 2.22 µM
TGI (PC-3 prostate): 11.1 µM
GI50 (RPMI-8226 leukemia): 0.956 µM
TGI (RPMI-8226 leukemia): 11.7 µM
GI50 (RXF 393 renal): 1.86 µM
TGI (RXF 393 renal): 9.35 µM
GI50 (SF-268 CNS): 3.4 µM
TGI (SF-268 CNS): 16.6 µM
GI50 (SF-295 CNS): 10.5 µM
TGI (SF-295 CNS): 24.2 µM
GI50 (SF-539 CNS): 5.63 µM
TGI (SF-539 CNS): 19.5 µM
GI50 (SK-MEL-2 melanoma): 2.58 µM
TGI (SK-MEL-2 melanoma): 7.18 µM
GI50 (SK-MEL-28 melanoma): 2.59 µM
TGI (SK-MEL-28 melanoma): 11.4 µM
GI50 (SK-MEL-5 melanoma): 1.52 µM
TGI (SK-MEL-5 melanoma): 2.92 µM
GI50 (SK-OV-3 ovarian): 3.58 µM
TGI (SK-OV-3 ovarian): 16.6 µM
GI50 (SN12C renal): 2.82 µM
TGI (SN12C renal): 8.53 µM
GI50 (SNB-19 CNS): 2.82 µM
TGI (SNB-19 CNS): 10.9 µM
GI50 (SNB-75 CNS): 1.85 µM
TGI (SNB-75 CNS): 7.92 µM
GI50 (SR leukemia): 5.12 µM
TGI (SR leukemia): 22.8 µM
GI50 (SW-620 colon): 4.74 µM
TGI (SW-620 colon): 35.5 µM
GI50 (TK-10 renal): 6 µM
TGI (TK-10 renal): 23.1 µM
GI50 (U251 CNS): 3.28 µM
TGI (U251 CNS): 15.4 µM
GI50 (UACC-257 melanoma): 2.65 µM
TGI (UACC-257 melanoma): 8.47 µM
GI50 (UACC-62 melanoma): 1.63 µM
TGI (UACC-62 melanoma): 4.28 µM
GI50 (UO-31 renal): 20.4 µM
TGI (UO-31 renal): 71 µM
